Patent US8252942B2, “Substituted imidazoline compounds” (Board of Trustees of Michigan State University, priority 2008, dated 2012)

Key:
RPMI-8226 cells = test: Cell death in multiple myeloma cells, MTS assay; type: cell-based; conditions: Homo sapiens, RPMI-8226, 24 h
Experimental: RPMI-8226 cells were treated with various concentrations of TCH-013 in duplicate and incubated for 24 hours. Percent survival was extrapolated based on mitochondrial activity as determined by MTS assay.
(§1) Given the critical role NF-κB-mediated IL-6 production plays in the growth and […] of multiple myeloma, we investigated the use of TCH-013 in somewhat more detail in a MM cell line (RPMI-8226).

[1] = test system: white blood cells (lymphocytes) in human blood; test: Cytotoxicity towards lymphocytes in human blood; type: cell-based; conditions: human blood exposed 24 hours, lymphocyte survival, effective concentrations (<20 μM) (FIG. 11)
Experimental: Human blood was exposed to TCH-013 (imidazoline 1) for 24 hours at various concentrations and the lymphocytes were evaluated for survival.
as §1

Structure (SMILES): N[C@@H](Cc1ccc(N(CCCl)CCCl)cc1)C(=O)O [melphalan]
- CC50 (RPMI-8226 cells): 30.6 µM

Structure (SMILES): COc1cccc2c1C(=O)c1c(O)c3c(c(O)c1C2=O)C[C@@](O)(C(=O)CO)C[C@@H]3O[C@H]1C[C@H](N)[C@H](O)[C@H](C)O1 [doxorubicin]
- CC50 (RPMI-8226 cells): 1.2 µM

Structure (SMILES): CCOC(=O)[C@@]1(c2ccccc2)N=C(c2ccccc2)N(Cc2ccccc2)[C@H]1c1ccccc1 (racemic) [TCH-013]
- CC50 (RPMI-8226 cells): 4 µM
- cytotoxicity towards white blood cells [1]: no significant cytotoxicity
